Test results published in US9126933B2, “Soft PDE4 inhibitors” (Amakem NV, priority 2011, dated 2015).
In brackets after ≈: the same amount, converted by molar mass.

Key:
[1] = Solubility in aqueous solution (PBS pH 7.4); format: physicochemical; details: phosphate buffer saline (PBS), pH 7.4, aqueous buffer, kinetic from dmso stock; PBS pH7.4, 24 h, room temperature, theoretical concentration 200 μM
Protocol: Using a 10 mM stock solution of each compound in 100% DMSO, dilutions were prepared to a theoretical concentration of 200 μM in both phosphate buffer saline (PBS), pH7.4 and in 100% DMSO (as reference). Solutions (triplicates) were incubated at room temperature for 24 h on a shaker at 100 rpm. The solutions were then centrifugated at 13000 rpm for 30 min and the supernatant was further diluted to 2 μM in methanol. The supernatant was then analyzed by LC-MSMS. The concentration of compound in PBS supernatant was determined by comparing the MS peak area with that of the reference solution in DMSO.

recombinant PDE4D2 = target: T1, recombinant PDE4D2 (Homo sapiens, UniProt Q08499); test: PDE4 inhibitory activity screening, PDE4D2 (HTRF, cAMP substrate); format: biochemical; details: 40 nM cAMP, 30 minutes, room temperature
T1 construct: host or cells: Sf9 insect cells
Protocol: (§1) Various concentrations of the test compounds were incubated with recombinant PDE4B1 or PDE4D2 (isolated from Sf9 cells), using 40 nM cAMP as enzyme substrate. Incubation time was set to 30 minutes. The reaction was carried out at room temperature. At the end of the incubation time, residual cAMP concentration was determined, using HTRF as detection method.
(§2) The IC50 values (concentration causing a half-maximal inhibition of control specific activity) and Hill coefficients (nH) were determined by non-linear regression analysis of the inhibition curves generated with mean replicate values using Hill equation curve fitting (Y=D+[(A−D)/(1+(C/C50)nH)], where Y=specific activity, D=minimum specific activity, A=maximum specific activity, C=compound concentration, C50=IC50 and nH=slope factor).

recombinant PDE4B1 = target: T2, recombinant PDE4B1 (Homo sapiens, UniProt Q07343); test: PDE4 inhibitory activity screening, PDE4B1 (HTRF, cAMP substrate); format: biochemical; details: 40 nM cAMP, 30 minutes, room temperature
T2 construct: host or cells: Sf9 insect cells
Protocol: as §1, §2

[2] = Stability assay in human plasma; format: in vitro ADME; details: 1 μM compound
Protocol: Compounds are incubated at a concentration of 1 μM in rat (mice/rabbit/dog/rabbit) or human plasma. Samples are taken at fixed time points and the remnant of compound is determined by LC-MS/MS after protein precipitation. Half life of the compound is expressed in minutes.

[3] = Membrane permeability, Pampa assay; details: for Papp at 5 h, 10 μM: PAMPA, pH 7.4
Protocol: The capacity of compounds of the invention to cross a lipophilic membrane was evaluated in a Pampa assay, using an assay plate containing structured layers of phospholipids supported on a PVDF filter (Benton Dickinson). […] Each compound was tested in triplicate and was prepared as a 10 μM solution in 10 mM PBS pH=7.4 buffer containing 2% DMSO. Compounds were dosed in the donor chamber of the assay plate and incubated for 5 hours, at room temperature. Additionally, an equilibrium solution plate containing 6 μM of test compound was prepared. Test compound concentration in donor and acceptor chamber and in the equilibrium plate was quantified using HPLC-MS/MS. The subsequently calculated permeability coefficients were reported as Papp.

[4] = Stability assay in aqueous humor; format: in vitro ADME; details: rabbit aqueous humor, 1 μM compound
Protocol: Compounds are incubated at a concentration of 1 μM in human or animal (e.g. rabbit) aqueous humor (AH). Samples are taken at fixed time points and the remnant of compound is determined by LC-MS/MS after protein precipitation.

T1 sequence (Q08499 303-809 limits assumed): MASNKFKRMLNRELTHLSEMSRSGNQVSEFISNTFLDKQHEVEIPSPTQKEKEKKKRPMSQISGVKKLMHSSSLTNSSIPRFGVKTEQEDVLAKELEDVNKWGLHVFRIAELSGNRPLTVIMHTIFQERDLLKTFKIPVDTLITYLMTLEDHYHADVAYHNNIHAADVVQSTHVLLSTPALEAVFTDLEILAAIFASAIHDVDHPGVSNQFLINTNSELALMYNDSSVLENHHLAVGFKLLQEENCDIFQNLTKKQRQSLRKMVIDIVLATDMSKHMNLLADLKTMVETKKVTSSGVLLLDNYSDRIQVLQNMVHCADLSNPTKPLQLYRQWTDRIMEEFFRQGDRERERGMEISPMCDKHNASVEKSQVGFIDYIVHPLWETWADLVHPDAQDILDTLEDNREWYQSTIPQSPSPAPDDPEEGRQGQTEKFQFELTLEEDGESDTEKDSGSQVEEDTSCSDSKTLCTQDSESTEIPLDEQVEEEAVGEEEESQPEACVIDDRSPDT
T2 sequence (Q07343 whole entry): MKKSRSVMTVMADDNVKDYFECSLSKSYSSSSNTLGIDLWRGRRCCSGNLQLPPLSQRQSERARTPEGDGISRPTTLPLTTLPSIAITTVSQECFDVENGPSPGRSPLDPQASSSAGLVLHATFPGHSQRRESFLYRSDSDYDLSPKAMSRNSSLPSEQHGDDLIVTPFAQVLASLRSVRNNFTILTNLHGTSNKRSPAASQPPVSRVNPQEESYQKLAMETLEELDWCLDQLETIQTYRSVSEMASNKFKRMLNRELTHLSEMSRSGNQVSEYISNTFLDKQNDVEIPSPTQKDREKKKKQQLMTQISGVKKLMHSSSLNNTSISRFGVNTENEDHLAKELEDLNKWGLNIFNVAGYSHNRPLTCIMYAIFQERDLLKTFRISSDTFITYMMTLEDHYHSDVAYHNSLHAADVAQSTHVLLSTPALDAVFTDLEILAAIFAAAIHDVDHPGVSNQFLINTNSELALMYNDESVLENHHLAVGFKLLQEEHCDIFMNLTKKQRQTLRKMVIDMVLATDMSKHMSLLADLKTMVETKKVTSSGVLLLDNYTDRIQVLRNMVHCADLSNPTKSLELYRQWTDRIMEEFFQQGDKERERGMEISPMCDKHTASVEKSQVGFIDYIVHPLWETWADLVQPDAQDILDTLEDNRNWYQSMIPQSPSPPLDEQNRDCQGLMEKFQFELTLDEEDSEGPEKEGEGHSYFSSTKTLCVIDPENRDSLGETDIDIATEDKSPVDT

| solubility at 24 h [1] | IC50 (recombinant PDE4D2) | IC50 (recombinant PDE4B1) | half-life at 1 μM [2] | Papp at 5 h, 10 μM [3] | half-life at 1 μM [4] | SMILES | Papp (Pampa; 10^−6 cm/s) ([3]; 10 μM in 10 mM PBS pH=7.4, 2% DMSO, 5 hours, room temperature) |
| --- | --- | --- | --- | --- | --- | --- | --- |
|  | 100 to 500 nM | 10 to 100 nM |  |  |  | CCOC(=O)c1cccc(Oc2cc(C(=O)Nc3c(Cl)cncc3Cl)ccc2OC(F)F)c1 [Compound 22, Ethyl 3-(5-((3,5-dichloropyridin-4-yl)carbamoyl)-2-(difluoromethoxy)phenoxy)benzoate] |  |
|  | 10 to 100 nM | 10 to 100 nM |  |  |  | O=C(Nc1c(Cl)cncc1Cl)c1ccc(OC(F)F)c(OCCCSc2cccc(C(=O)OCCO)c2)c1 [Compound 23] |  |
|  | 10 to 100 nM | 10 to 100 nM | < 15 min |  |  | CN(C)CCOC(=O)c1cccc(SCCCOc2cc(C(=O)Nc3c(Cl)cncc3Cl)ccc2OC(F)F)c1 [Compound 24] |  |
|  | 10 to 100 nM | 10 to 100 nM |  |  |  | O=C(Nc1c(Cl)cncc1Cl)c1ccc(OC(F)F)c(OCCCSc2ccc(C(=O)OCCO)cc2)c1 [Compound 25] |  |
|  | < 10 nM | 10 to 100 nM | < 15 min |  |  | CN(C)CCOC(=O)c1ccc(SCCCOc2cc(C(=O)Nc3c(Cl)cncc3Cl)ccc2OC(F)F)cc1 [Compound 26] |  |
|  | 10 to 100 nM | 10 to 100 nM |  | 2.3 ×10⁻⁶ cm/s | > 120 min | O=C(Nc1c(Cl)cncc1Cl)c1ccc(OC(F)F)c(Oc2ccc(C(=O)OCCO)cc2)c1 [Compound 27] |  |
|  | 100 to 500 nM | 10 to 100 nM | 15 to 60 min | 7.9 ×10⁻⁶ cm/s | 60 to 120 min | CN(C)CCOC(=O)c1ccc(Oc2cc(C(=O)Nc3c(Cl)cncc3Cl)ccc2OC(F)F)cc1 [Compound 28] |  |
|  | 10 to 100 nM | < 10 nM |  | 5.1 ×10⁻⁶ cm/s |  | O=C(Nc1c(Cl)cncc1Cl)c1ccc(OC(F)F)c(Oc2cccc(C(=O)OCCO)c2)c1 [Compound 29] |  |
|  | 10 to 100 nM | < 10 nM | < 15 min | 5.3 ×10⁻⁶ cm/s |  | CN(C)CCOC(=O)c1cccc(Oc2cc(C(=O)Nc3c(Cl)cncc3Cl)ccc2OC(F)F)c1 [Compound 30] |  |
|  | > 500 nM | > 500 nM |  | 0.02 ×10⁻⁶ cm/s |  | O=C(O)CNCCCOc1cc(C(=O)Nc2c(Cl)cncc2Cl)ccc1OC(F)F [Met3, 2-[(3-{5-[(3,5-dichloropyridin-4-yl)carbamoyl]-2-(difluoromethoxy)phenoxy}propyl)amino]acetic acid] |  |
| < 10 µM |  |  |  |  |  | O=C(Nc1c(Cl)cncc1Cl)c1ccc(OC(F)F)c(OCC2CC2)c1 [Roflumilast, reference compound] |  |

The next lines start with the compound.

| SMILES | solubility at 24 h [1] | IC50 (recombinant PDE4D2) | IC50 (recombinant PDE4B1) | half-life at 1 μM [2] | Papp at 5 h, 10 μM [3] | half-life at 1 μM [4] | Papp (Pampa; 10^−6 cm/s) ([3]; 10 μM in 10 mM PBS pH=7.4, 2% DMSO, 5 hours, room temperature) |
| --- | --- | --- | --- | --- | --- | --- | --- |
| CCCOC(=O)CCCCOc1cc(C(=O)Nc2c(Cl)cncc2Cl)ccc1OC(F)F [Compound 1, propyl 5-[5-{[(3,5-dichloropyridin-4-yl)amino]carbonyl}-2-(difluoromethoxy)phenoxy]pentanoate] | 10 to 100 µM (≈ 4.91 to 49.1 µg/mL) | 10 to 100 nM | 10 to 100 nM |  |  |  |  |
| O=C(CCCCOc1cc(C(=O)Nc2c(Cl)cncc2Cl)ccc1OC(F)F)Oc1ccccc1 [Compound 2, phenyl 5-[5-{[(3,5-dichloropyridin-4-yl)amino]carbonyl}-2-(difluoromethoxy)phenoxy]pentanoate] | 10 to 100 µM (≈ 5.25 to 52.5 µg/mL) | 10 to 100 nM | 10 to 100 nM | < 15 min |  |  |  |
| O=C(CCCCOc1cc(C(=O)Nc2c(Cl)cncc2Cl)ccc1OC(F)F)Oc1ccccc1F [Compound 3] | < 10 µM | 100 to 500 nM | 10 to 100 nM | < 15 min |  |  |  |
| O=C(CCCCOc1cc(C(=O)Nc2c(Cl)cncc2Cl)ccc1OC(F)F)OCc1ccccc1 [Compound 4] | < 10 µM | 100 to 500 nM | 10 to 100 nM |  |  |  |  |
| O=C(CCCCOc1cc(C(=O)Nc2c(Cl)cncc2Cl)ccc1OC(F)F)OCCN1CCOCC1 [Compound 5] | > 100 µM | < 10 nM | < 10 nM | 15 to 60 min |  |  |  |
| O=C(CCCCOc1cc(C(=O)Nc2c(Cl)cncc2Cl)ccc1OC(F)F)OCC1CCCO1 (stereo not shown) [Compound 6] |  | 10 to 100 nM | < 10 nM | 15 to 60 min |  |  |  |
| COCCOC(=O)CCCCOc1cc(C(=O)Nc2c(Cl)cncc2Cl)ccc1OC(F)F [Compound 7] | > 100 µM | 10 to 100 nM | < 10 nM | 15 to 60 min | 9.2 ×10⁻⁶ cm/s |  |  |
| O=C(CCCCOc1cc(C(=O)Nc2c(Cl)cncc2Cl)ccc1OC(F)F)OCCN1CCCC1 [Compound 8] | > 100 µM | 10 to 100 nM | < 10 nM | < 15 min | 7.5 ×10⁻⁶ cm/s |  |  |
| CN(C)CCOC(=O)CCCCOc1cc(C(=O)Nc2c(Cl)cncc2Cl)ccc1OC(F)F [Compound 9] | 10 to 100 µM (≈ 5.2 to 52 µg/mL) | 10 to 100 nM | 10 to 100 nM | < 15 min | 3 ×10⁻⁶ cm/s |  |  |
| O=C(CCCCOc1cc(C(=O)Nc2c(Cl)cncc2Cl)ccc1OC(F)F)NCCSC1CCOC1=O (stereo not shown) [Compound 10] | > 100 µM | < 10 nM | < 10 nM | < 15 min | 3.7 ×10⁻⁶ cm/s |  |  |
| O=C(Nc1c(Cl)cncc1Cl)c1ccc(OC(F)F)c(OCCCSC2CCOC2=O)c1 (stereo not shown) [Compound 13] | 10 to 100 µM (≈ 5.07 to 50.7 µg/mL) | < 10 nM | < 10 nM | < 15 min |  |  | 6.6 10^−6 cm/s |
| COC(=O)CNCCCOc1cc(C(=O)Nc2c(Cl)cncc2Cl)ccc1OC(F)F [Compound 15] | > 100 µM | 10 to 100 nM | 10 to 100 nM | 15 to 60 min | 5.6 ×10⁻⁶ cm/s | 60 to 120 min |  |
| COC(=O)Cc1cccc(NCCCOc2cc(C(=O)Nc3c(Cl)cncc3Cl)ccc2OC(F)F)c1 [Compound 16] | < 10 µM | 10 to 100 nM | < 10 nM | < 15 min |  |  |  |
| COC(=O)c1cccc(SCCCOc2cc(C(=O)Nc3c(Cl)cncc3Cl)ccc2OC(F)F)c1 [Compound 17] | < 10 µM | 100 to 500 nM | 100 to 500 nM |  |  |  |  |
| COC(=O)c1ccc(SCCCOc2cc(C(=O)Nc3c(Cl)cncc3Cl)ccc2OC(F)F)cc1 [Compound 18] |  | 100 to 500 nM | 100 to 500 nM |  |  |  |  |
| COC(=O)c1ccc(Oc2cc(C(=O)Nc3c(Cl)cncc3Cl)ccc2OC(F)F)cc1 [Compound 21, Methyl 4-(5-((3,5-dichloropyridin-4-yl)carbamoyl)-2-(difluoromethoxy)phenoxy)benzoate] | 10 to 100 µM (≈ 4.83 to 48.3 µg/mL) | > 500 nM | 10 to 100 nM |  |  | > 120 min |  |
| O=C(Nc1c(Cl)cncc1Cl)c1ccc(OC(F)F)c(OCCCCNC(CCO)C(=O)O)c1 (stereo not shown) [Met1] |  | 100 to 500 nM | 100 to 500 nM |  | 0.03 ×10⁻⁶ cm/s |  |  |
| O=C(Nc1c(Cl)cncc1Cl)c1ccc(OC(F)F)c(OCCCNC(CCO)C(=O)O)c1 (stereo not shown) [Met2] |  | > 500 nM | > 500 nM |  | 0.02 ×10⁻⁶ cm/s |  |  |
